Laboratory results as given in PMC3090394 (2011).

Key:
[1] = tested on: oligo I, d-(GGGATATATCCC)2, AT-rich oligonucleotide (DNA, duplex) GGGATATATCCC; test: ITC; details: Na+ 100 mM (NaCl), 10 mM HEPES, pH 7.0, 25°C; for Ka: apparent, (K1K2)^1/2 of two binding events; for binding: 1000 µM ligand titrated into 10 µM DNA, nd
[2] = tested on: oligo II, d-(GGGCGGCCGCCC)2, GC-rich oligonucleotide (DNA, duplex) GGGCGGCCGCCC; test: ITC; details: Na+ 100 mM (NaCl), 10 mM HEPES, pH 7.0, 25°C; for binding: 1000 µM ligand titrated into 10 µM DNA, nd

Row | Ka [1] | binding [2] | binding [1] | binding constant ([1]; control titration) | binding constant ([2]; control titration) | SMILES
1 | 2.7±0.3 ×10^5 M^−1 | no | – | – | – | Cn1cc(NC(=O)c2cc(NC(=O)c3cccn3C)cn2C)cc1C(=O)NCCCn1cc(CN2CCCNCCNCCCNCC2)nn1
2 | – | no | no | – | – | Cn1cccc1C(=O)NCCCn1cc(CN2CCCNCCNCCCNCC2)nn1
3 | 1.2±0.2 ×10^5 M^−1 | no | – | – | – | Cn1cc(NC(=O)c2cc(NC(=O)c3cccn3C)cn2C)cc1C(=O)NCCCn1cc(CN2CCCNCCNCCCNCC2)nn1.[Cu+2]
4 | – | no | no | – | – | Cn1cc(NC(=O)c2cccn2C)cc1C(=O)NCCCn1cc(CN2CCCNCCNCCCNCC2)nn1
5 | – | – | – | ~ 0.7×10^5 M^−1 | ~ 0.7×10^5 M^−1 | CC[n+]1c(-c2ccccc2)c2cc(N)ccc2c2ccc(N)cc21
6 | 1.5±0.3 ×10^5 M^−1 | no | – | – | – | Cn1cc(NC(=O)c2cc(NC(=O)c3cccn3C)cn2C)cc1C(=O)NCCCn1cc(CN2CCCNCCNCCCNCC2)nn1.[Zn+2]
